Experimental data from patent US7795226B2, “Control of radiation injury” (Biotempt B.V., priority 2006, dated 2010).
“And” between values parts separate entries of the source, which are not always exact repeats. Identical values can stand only once.

What was measured:
Type in all cases: in vivo
[1] = tested on: high dose LPS (E. coli 026:B6)-induced septic shock in BALB/c mice; assay: high dose LPS-induced septic shock, peptide administered twice; settings: peptide twice (t = 2 and 24 hours) 5 mg/kg
In short: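 Female BALB/c mice (8–12 weeks) given high-dose LPS (E. coli 026:B6) i.p., predetermined to cause 80–100% mortality in 24–72 h. Peptides in PBS at 5 mg/kg i.p. at 2 and 24 h after LPS; sickness scored 0–5 or dead.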

[2] = tested on: LPS (E. coli 026:B6)-induced septic shock in BALB/c mice; assay: LPS-induced septic shock, single dose of peptide
Protocol: Mice used in sepsis or septic shock experiments: Female BALB/c mice of eight to twelve weeks of age were used for all experiments. The animals were bred in our facility under specific pathogen-free conditions according to the protocols described in the […] of European Laboratory Animal Science Associations (FELASA) Working group on Animal Health (Laboratory Animals 28:1-24, 1994).
Injection protocols: For the endotoxin model, BALB/c mice were injected i.p. with 150-300 μg LPS (E. coli 026:B6; Difco Lab., Detroit, Mich., USA). Control groups were treated with PBS i.p. only. To test the effect of peptides, they were dissolved in PBS and injected i.p. at predetermined points in time after LPS treatment.
Mice were scored for sickness severity using the following measurement scheme: • 0 No abnormalities. • 1 Percolated fur, but no detectable behavior differences compared to normal mice. • 2 Percolated fur, huddle reflex, responds to stimuli (such as tap on cage), just as active during handling as healthy mouse. • 3 Slower response to tap on cage, passive or docile when handled, but still curious when alone in a new setting. • 4 Lack of curiosity, little or no response to stimuli, quite immobile. • 5 Labored breathing, inability or slow to self-right after being rolled onto back (moribund, sacrificed). • D Dead.
A first set of septic shock experiments were set up to determine which of the peptides LQG, LQGV (SEQ ID NO:117), VLPALP (SEQ ID NO:140), VLPALPQ (SEQ ID NO:143), MTR, MTRV (SEQ ID NO:119), VVC or QVVC (SEQ ID NO:118) were capable of inhibiting lipopolysaccharide (LPS)-induced septic shock in mice by treating mice with a single dose of peptide at two hours after LPS treatment. Peptides were used at 5 mg/kg bodyweight. BALB/c mice were injected i.p. with escalating doses LPS (E. coli 026:B6; Difco Lab., Detroit, Mich. USA), predetermined to be leading to 80 to 100% mortality in 24 to 72 hours.
To test the effect of peptide early in the development of shock, mice were treated at two hours or at 24 hours after treatment with varying doses of LPS by i.p. injection with test peptide at 5 mg/kg bodyweight.

[3] = tested on: renal ischemia reperfusion in mice; assay: mouse renal ischemia reperfusion test; design: BUN after 25 minutes renal ischemia, mean / Urea levels in dose-response experiment: unit not given here
Protocol: Six oligopeptides (i.e., A: LAGV (SEQ ID NO:121); B: AQGV (SEQ ID NO:120); C: LAG; D: AQG; E: MTR; and F: MTRV (SEO ID NO:119)) were tested and compared with PBS (control) in a double blind animal study for each peptide's relative ability to aid recovery in a mouse renal ischemia reperfusion test. In this test, the mice were anesthetized, and one kidney from each mouse was removed. The other kidney was tied off for 25 minutes, and the serum urea levels were allowed to increase. Both before and after tying off, each of the separate peptides was administered to thirty (30) different mice (5 mg oligopeptide / kg body mass intravenously), after which, the mortality of the mice was determined for each oligopeptide as well as was the BUN concentration at two hours, 24 hours and 72 hours. The results are shown in Table 3 below (excluding the results of peptide A (LAGV (SEQ ID NO:121)) obtained in Example 3).
Under inhalation anesthesia, the left kidney with its artery and vein was isolated and occluded for 25 minutes using a microvascular clamp. During surgery, animals were placed on a heating pad to maintain body temperature at 37° C. Five minutes before placing the clamp, and five minutes before releasing the clamp, 5 mg/kg of peptide dissolved in 0.1 mL of sterile saline, was administered intravenously. After reperfusion of the left kidney, the right kidney was removed. Kidney function was assessed by measuring blood urea nitrogen before clamping, and at 2, 24, and 72 hours after reperfusion.
Peptides were tested at 0.3, 1, 3, 10 and 30 mg/kg dosages given as described in Example 3. P values (calculated by Mann Whitney U-test (SPSS for Windows)) of serum urea levels of PBS compared to peptide D groups at 72 hours post-clamping were at 0.3 mg/kg 0.001, at 1 mg/kg 0.009, at 3 mg/kg 0.02, at 10 mg/kg 0.000, and at 30 mg/kg 0.23; for peptide B (SEQ ID NO:120) groups, these P-values were 0.88, 0.054, 0.000, 0.001 and 0.003.

[4] = LPS dose 7**, single dose 5 mg/kg
[5] = LPS dose 7*, single dose 5 mg/kg
[6] = LPS dose 8, single dose 5 mg/kg
[7] = LPS dose 8, single dose 5 mg/kg, 5 mg/kg
[8] = LPS dose 10, single dose 5 mg/kg
[9] = LPS dose 10, single dose 5 mg/kg, 5 mg/kg
[10] = 2 hours after reperfusion, 5 mg/kg i.v.
[11] = 24 hours after reperfusion, 5 mg/kg i.v.
[12] = 72 hours after reperfusion, 5 mg/kg i.v.
[13] = t = 0 hr (before clamping), 5 mg/kg i.v.

VLPALPQ (septamer peptide)
mice scored D (dead), effect at t = 48 hours ([1]; LPS dose 10.5): 2
mice with sickness score 2, effect at t = 24 hours ([1]; LPS dose 10.5): 1
mice with sickness score 2, effect at t = 48 hours ([1]; LPS dose 10.5): 3
mice with sickness score 3, effect at t = 24 hours ([1]; LPS dose 10.5): 2
mice with sickness score 5, effect at t = 24 hours ([1]; LPS dose 10.5): 2
mice scored D (dead), effect at t = 48 hours ([1]; LPS dose 11): 2
mice with sickness score 4, effect at t = 48 hours ([1]; LPS dose 11): 3
mice with sickness score 5, effect at t = 24 hours ([1]; LPS dose 11): 6
mice with sickness score 5, effect at t = 48 hours ([1]; LPS dose 11): 1
mice with sickness score 2, effect at t = 48 hours ([1]; LPS dose 11, 5 mg/kg): 4 and 2
mice scored D (dead), effect at t = 24 hours [2, 4]: 1
mice scored D (dead), effect at t = 48 hours [2, 4]: 6
mice with sickness score 5, effect at t = 24 hours [2, 4]: 5
mice scored D (dead), effect at t = 48 hours [2, 5]: 2
mice with sickness score 3, effect at t = 24 hours [2, 5]: 3
mice with sickness score 4, effect at t = 24 hours [2, 5]: 3
mice with sickness score 4, effect at t = 48 hours [2, 5]: 2
mice with sickness score 5, effect at t = 48 hours [2, 5]: 2
mice scored D (dead), effect at t = 24 hours [2, 6]: 2
mice scored D (dead), effect at t = 48 hours [2, 6]: 6
mice with sickness score 2, effect at t = 24 hours [2, 6]: 1
mice with sickness score 3, effect at t = 24 hours [2, 6]: 3
mice with sickness score 3, effect at t = 48 hours [2, 6]: 1
mice with sickness score 4, effect at t = 48 hours [2, 6]: 3
mice with sickness score 5, effect at t = 24 hours [2, 6]: 3
mice with sickness score 5, effect at t = 48 hours [2, 6]: 2
mice with sickness score 4, effect at t = 24 hours [2, 7]: 2 and 1
mice scored D (dead), effect at t = 24 hours [2, 8]: 3
mice scored D (dead), effect at t = 48 hours [2, 8]: 5
mice with sickness score 3, effect at t = 24 hours [2, 8]: 1
mice with sickness score 4, effect at t = 24 hours [2, 8]: 2
mice with sickness score 5, effect at t = 48 hours [2, 8]: 1
mice with sickness score 5, effect at t = 24 hours [2, 9]: 4 and 2
BUN after 25 minutes renal ischemia, mean [3, 10]: 13.58
BUN after 25 minutes renal ischemia, mean [3, 11]: 37.79
BUN after 25 minutes renal ischemia, mean [3, 12]: 37.6375
BUN concentration versus PBS (in words) ([3]; at 72 hours post-reperfusion, 5 mg/kg i.v.): did much better in terms of reduced BUN concentration
BUN after 25 minutes renal ischemia, mean [3, 13]: 8.257

MTRV
mice with sickness score 1, effect at t = 48 hours ([1]; LPS dose 10.5): 2
mice with sickness score 2, effect at t = 24 hours ([1]; LPS dose 10.5): 1
mice with sickness score 2, effect at t = 48 hours ([1]; LPS dose 10.5): 3
mice with sickness score 3, effect at t = 24 hours ([1]; LPS dose 10.5): 1
mice with sickness score 4, effect at t = 24 hours ([1]; LPS dose 10.5): 3
mice with sickness score 1, effect at t = 48 hours ([1]; LPS dose 11): 6
mice with sickness score 2, effect at t = 24 hours ([1]; LPS dose 11): 4
mice with sickness score 4, effect at t = 24 hours ([1]; LPS dose 11): 2
mice scored D (dead), effect at t = 48 hours [2, 4]: 2
mice with sickness score 1, effect at t = 48 hours [2, 4]: 3
mice with sickness score 3, effect at t = 24 hours [2, 4]: 2
mice with sickness score 3, effect at t = 48 hours [2, 4]: 1
mice with sickness score 4, effect at t = 24 hours [2, 4]: 3
mice with sickness score 5, effect at t = 24 hours [2, 4]: 1
mice with sickness score 2, effect at t = 48 hours [2, 5]: 4
mice with sickness score 3, effect at t = 24 hours [2, 5]: 3
mice with sickness score 4, effect at t = 24 hours [2, 5]: 3
mice with sickness score 5, effect at t = 48 hours [2, 5]: 2
mice with sickness score 1, effect at t = 48 hours [2, 8]: 2
mice with sickness score 3, effect at t = 48 hours [2, 8]: 1
mice with sickness score 5, effect at t = 48 hours [2, 8]: 1
mice with sickness score 2, effect at t = 24 hours [2, 9]: 2 and 1
mice with sickness score 3, effect at t = 24 hours [2, 9]: 1 and 2
mice with sickness score 4, effect at t = 24 hours [2, 9]: 2 and 1
mice with sickness score 5, effect at t = 24 hours [2, 9]: 1 and 2
BUN concentration versus the PBS control group (in words) ([3]; 5 mg/kg i.v.): reduced BUN concentration
mortality versus the PBS control group (in words) ([3]; 5 mg/kg i.v.): significant reduction in mortality
mortality at 72 hours post-reperfusion ([3]; 5 mg/kg i.v. before and after 25 minutes clamping, dead/total): 2/10
BUN after 25 minutes renal ischemia, mean [3, 10]: 15.09
BUN after 25 minutes renal ischemia, mean [3, 11]: 34.57
BUN after 25 minutes renal ischemia, mean [3, 12]: 39.8375
BUN after 25 minutes renal ischemia, mean [3, 13]: 7.463

LQGV
mice scored D (dead), effect at t = 48 hours ([1]; LPS dose 10.5): 5
mice with sickness score 5, effect at t = 24 hours ([1]; LPS dose 10.5): 5
mice scored D (dead), effect at t = 48 hours ([1]; LPS dose 11): 4
mice with sickness score 4, effect at t = 24 hours ([1]; LPS dose 11): 2
mice with sickness score 4, effect at t = 48 hours ([1]; LPS dose 11): 2
mice with sickness score 5, effect at t = 24 hours ([1]; LPS dose 11): 4
protective effect against LPS-induced sepsis (in words) ([2]; 5 mg/kg i.p.): marked protective effect
mice with sickness score 1, effect at t = 24 hours [2, 4]: 6
mice with sickness score 1, effect at t = 48 hours [2, 4]: 6
mice with sickness score 1, effect at t = 24 hours [2, 5]: 2
mice with sickness score 1, effect at t = 48 hours [2, 5]: 6
mice with sickness score 2, effect at t = 24 hours [2, 5]: 4
mice with sickness score 0, effect at t = 48 hours [2, 6]: 4
mice with sickness score 1, effect at t = 24 hours [2, 6]: 3
mice with sickness score 2, effect at t = 48 hours [2, 6]: 1
mice with sickness score 3, effect at t = 24 hours [2, 6]: 1
mice with sickness score 2, effect at t = 24 hours [2, 7]: 5 and 3
mice scored D (dead), effect at t = 48 hours [2, 8]: 1
mice with sickness score 1, effect at t = 24 hours [2, 8]: 2
mice with sickness score 2, effect at t = 48 hours [2, 8]: 1
mice with sickness score 3, effect at t = 24 hours [2, 8]: 1
mice with sickness score 4, effect at t = 24 hours [2, 8]: 1
mice with sickness score 1, effect at t = 48 hours [2, 9]: 6 and 4
BUN after 25 minutes renal ischemia, mean [3, 10]: 17.53
BUN after 25 minutes renal ischemia, mean [3, 11]: 56.08
BUN after 25 minutes renal ischemia, mean [3, 12]: 73.18
BUN after 25 minutes renal ischemia, mean [3, 13]: 7.518
